# Experimental data from patent US11377425B1, “Small molecule modulators of IL-17” (LEO Pharma A/S, priority 2018, dated 2022).
# Molecular target: T1, human IL-17AA (Homo sapiens, UniProt Q16552)
# T1 construct: host or cells: HEK (human embryonic kidney) cells
# T1 sequence (Q16552 24-155): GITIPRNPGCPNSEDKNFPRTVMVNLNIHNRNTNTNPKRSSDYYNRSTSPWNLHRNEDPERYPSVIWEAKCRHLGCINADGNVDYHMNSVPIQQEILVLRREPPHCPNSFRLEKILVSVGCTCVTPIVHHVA
# Assay: IL-8 release assay in human epithelial keratinocytes adult (HEKa)
# Assay type: cell-based
# Conditions: HEKa cells, 3 ng/mL HEK-human IL-17AA + 10 ng/mL human TNFalpha; read-out: Rel EC50 IL-8 release assay
# Outline: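 IL-8 release, quantified by HTRF and normalized to controls, reports IL-17 signaling in HEKa cells treated with compound plus final 3 ng/mL IL-17AA (HEK-derived) and 10 ng/mL TNF-alpha for 68-72 h; TNF-alpha-only wells set 100% inhibition. Four-parameter logistic fits (r^2>0.9) give relative IC50 and Emax; PrestoBlue flags cytotoxicity.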
row,EC50 [nM],Compound
1,< 100,"CCn1nccc1C(=O)N[C@H](C(=O)Nc1ccc(-c2c(C3CC3)n[nH]c2C)cc1)C(C1CC1)C1CC1 [Example 392, N-[(1S)-2,2-dicyclopropyl-1-[[4-(3-cyclopropyl-5-methyl-1H-pyrazol-4-yl)phenyl]carbamoyl]ethyl]-2-ethyl-pyrazole-3-carboxamide]"
2,< 100,"CCc1n[nH]c(CC)c1-c1ccc(NC(=O)[C@@H](NC(=O)c2ccnn2CCCO)C(C2CC2)C2CC2)cc1 [Example 393, N-[(1S)-1-(dicyclopropylmethyl)-2-[4-(3,5-diethyl-1H-pyrazol-4-yl)anilino]-2-oxo-ethyl]-2-(3-hydroxypropyl)pyrazole-3-carboxamide]"
3,< 100,"CCc1n[nH]c(CC)c1-c1ccc(NC(=O)[C@@H](NC(=O)c2ccnn2[C@@H](C)CO)C(C2CC2)C2CC2)cc1 [Example 394, N-[(1S)-1-(dicyclopropylmethyl)-2-[4-(3,5-diethyl-1H-pyrazol-4-yl)anilino]-2-oxo-ethyl]-2-[(1S)-2-hydroxy-1-methyl-ethyl]pyrazole-3-carboxamide]"
4,< 100,"CCc1n[nH]c(CC)c1-c1ccc(NC(=O)[C@@H](NC(=O)c2ccnn2[C@H](C)CO)C(C2CC2)C2CC2)cc1 [Example 395, N-[(1S)-1-(dicyclopropylmethyl)-2-[4-(3,5-diethyl-1H-pyrazol-4-yl)anilino]-2-oxo-ethyl]-2-[(1R)-2-hydroxy-1-methyl-ethyl]pyrazole-3-carboxamide]"
5,< 100,"CCc1n[nH]c(CC)c1-c1ccc(NC(=O)[C@@H](NC(=O)c2ccnn2CC)C(C2CC2)C2CC2)cc1 [Example 396, N-[(1S)-1-(dicyclopropylmethyl)-2-[4-(3,5-diethyl-1H-pyrazol-4-yl)anilino]-2-oxo-ethyl]-2-ethyl-pyrazole-3-carboxamide]"
6,< 100,"CCCn1nccc1C(=O)N[C@H](C(=O)Nc1ccc(-c2c(CC)n[nH]c2CC)cc1)C(C1CC1)C1CC1 [Example 397, N-[(1S)-1-(dicyclopropylmethyl)-2-[4-(3,5-diethyl-1H-pyrazol-4-yl)anilino]-2-oxo-ethyl]-2-propyl-pyrazole-3-carboxamide]"
7,< 100,"CCc1n[nH]c(CC)c1-c1ccc(NC(=O)[C@@H](NC(=O)c2ccnn2C)C(C2CC2)C2CC2)cc1 [Example 398, N-[(1S)-1-(dicyclopropylmethyl)-2-[4-(3,5-diethyl-1H-pyrazol-4-yl)anilino]-2-oxo-ethyl]-2-methyl-pyrazole-3-carboxamide]"
8,< 100,"CCc1n[nH]c(CC)c1-c1ccc(NC(=O)[C@@H](NC(=O)c2ccnn2C(C)C)C(C2CC2)C2CC2)cc1 [Example 399, N-[(1S)-1-(dicyclopropylmethyl)-2-[4-(3,5-diethyl-1H-pyrazol-4-yl)anilino]-2-oxo-ethyl]-2-isopropyl-pyrazole-3-carboxamide]"
9,100 to 1000,"Cc1[nH]ncc1-c1ccc(NC(=O)[C@@H](NC(=O)c2ccnn2C)C(c2ccccc2)c2ccccc2)cc1 [Example 400, N-[(1S)-1-Benzhydryl-2-[4-(3-methyl-1H-pyrazol-4-yl)anilino]-2-oxo-ethyl]-2-methyl-pyrazole-3-carboxamide]"
10,100 to 1000,"CC(C)c1ncn(C)c1-c1ccc(NC(=O)[C@@H](NC(=O)c2ccnn2C(C)C)C(C2CC2)C2CC2)cc1 [Example 401, N-[(1S)-1-(dicyclopropylmethyl)-2-[4-(5-isopropyl-3-methyl-imidazol-4-yl)anilino]-2-oxo-ethyl]-2-isopropyl-pyrazole-3-carboxamide]"
11,100 to 1000,"CC(C)n1nccc1C(=O)N[C@H](C(=O)Nc1ccc(-c2c(C3CC3)ncn2C)cc1)C(C1CC1)C1CC1 [Example 402, N-[(1S)-2,2-dicyclopropyl-1-[[4-(5-cyclopropyl-3-methyl-imidazol-4-yl)phenyl]carbamoyl]ethyl]-2-isopropyl-pyrazole-3-carboxamide]"
12,100 to 1000,"Cc1ncn(C)c1-c1ccc(NC(=O)[C@@H](NC(=O)c2ccnn2C(C)C)C(C2CC2)C2CC2)cc1 [Example 403, N-[(1S)-1-(dicyclopropylmethyl)-2-[4-(3,5-dimethylimidazol-4-yl)anilino]-2-oxo-ethyl]-2-isopropyl-pyrazole-3-carboxamide]"
13,100 to 1000,"Cc1ncccc1-c1ccc(NC(=O)[C@@H](NC(=O)c2ccnn2C(C)C)C(C2CC2)C2CC2)cc1 [Example 404, N-[(1S)-1-(dicyclopropylmethyl)-2-[4-(2-methyl-3-pyridyl)anilino]-2-oxo-ethyl]-2-isopropyl-pyrazole-3-carboxamide]"
14,< 100,"Cc1cnccc1-c1ccc(NC(=O)[C@@H](NC(=O)c2ccnn2C(C)C)C(C2CC2)C2CC2)cc1 [Example 405, N-[(1S)-1-(dicyclopropylmethyl)-2-[4-(3-methyl-4-pyridyl)anilino]-2-oxo-ethyl]-2-isopropyl-pyrazole-3-carboxamide]"
15,100 to 1000,"CC(C)n1nccc1C(=O)N[C@H](C(=O)Nc1ccc(-c2c(CO)ncn2C)cc1)C(C1CC1)C1CC1 [Example 406, N-[(1S)-1-(dicyclopropylmethyl)-2-[4-[5-(hydroxymethyl)-3-methyl-imidazol-4-yl]anilino]-2-oxo-ethyl]-2-isopropyl-pyrazole-3-carboxamide]"
16,100 to 1000,"CC(C)n1nccc1C(=O)N[C@H](C(=O)Nc1ccc(-c2cccnc2CO)cc1)C(C1CC1)C1CC1 [Example 407, N-[(1S)-1-(dicyclopropylmethyl)-2-[4-[2-(hydroxymethyl)-3-pyridyl]anilino]-2-oxo-ethyl]-2-isopropyl-pyrazole-3-carboxamide]"
17,100 to 1000,"Cc1noc(CO)c1-c1ccc(NC(=O)[C@@H](NC(=O)c2ccnn2C(C)C)C(C2CC2)C2CC2)cc1 [Example 409, N-[(1S)-1-(dicyclopropylmethyl)-2-[4-[5-(hydroxymethyl)-3-methyl-isoxazol-4-yl]anilino]-2-oxo-ethyl]-2-isopropyl-pyrazole-3-carboxamide]"
18,< 100,"Cc1n[nH]c(C)c1-c1ccc(NC(=O)[C@@H](NC(=O)c2ccnn2C(C)C)C(C2CC2)C2CC2)cc1O [Example 410, N-[(1S)-1-(Dicyclopropylmethyl)-2-[4-(3,5-dimethyl-1H-pyrazol-4-yl)-3-hydroxy-anilino]-2-oxo-ethyl]-2-isopropyl-pyrazole-3-carboxamide]"
19,100 to 1000,"Cc1n[nH]c(C)c1-c1ccc(NC(=O)[C@@H](NC(=O)c2ccnn2C)C(c2ccccc2)c2ccccc2)cc1O [Example 411, N-[(1S)-1-benzhydryl-2-[4-(3,5-dimethyl-1H-pyrazol-4-yl)-3-hydroxy-anilino]-2-oxo-ethyl]-2-methyl-pyrazole-3-carboxamide]"
20,< 100,"Cc1n[nH]c(C)c1-c1ccc(NC(=O)[C@@H](NC(=O)c2ccnn2C)C2CCCCC2)cc1O [Example 412, N-[(1S)-1-cyclohexyl-2-[4-(3,5-dimethyl-1H-pyrazol-4-yl)-3-hydroxy-anilino]-2-oxo-ethyl]-2-methyl-pyrazole-3-carboxamide]"
21,< 100,"CCn1nccc1C(=O)N[C@H](C(=O)Nc1ccc(-c2c(C)n[nH]c2C)c(O)c1)C(C1CC1)C1CC1 [Example 413, N-[(1S)-1-(dicyclopropylmethyl)-2-[4-(3,5-dimethyl-1H-pyrazol-4-yl)-3-hydroxy-anilino]-2-oxo-ethyl]-2-ethyl-pyrazole-3-carboxamide]"
22,< 100,"Cc1n[nH]c(C)c1-c1ccc(NC(=O)[C@@H](NC(=O)c2ccnn2C)C(C2CC2)C2CC2)cc1O [Example 414, N-[(1S)-1-(dicyclopropylmethyl)-2-[4-(3,5-dimethyl-1H-pyrazol-4-yl)-3-hydroxy-anilino]-2-oxo-ethyl]-2-methyl-pyrazole-3-carboxamide]"
23,100 to 1000,"Cc1n[nH]c(C)c1-c1ccc(NC(=O)[C@@H](NC(=O)C2(F)CC2)C(C2CC2)C2CC2)cc1O [Example 415, N-[(1S)-1-(dicyclopropylmethyl)-2-[4-(3,5-dimethyl-1H-pyrazol-4-yl)-3-hydroxy-anilino]-2-oxo-ethyl]-1-fluoro-cyclopropanecarboxamide]"
24,< 100,"CCn1nccc1C(=O)N[C@H](C(=O)Nc1ccc(-c2c(C)n[nH]c2C)c(O)c1)[C@H]1CC[C@H](C)CC1 [Example 416, N-[(1S)-2-[4-(3,5-dimethyl-1H-pyrazol-4-yl)-3-hydroxy-anilino]-1-(trans-4-methylcyclohexyl)-2-oxo-ethyl]-2-ethyl-pyrazole-3-carboxamide]"
25,< 100,"Cc1n[nH]c(C)c1-c1ccc(NC(=O)[C@@H](NC(=O)c2ccnn2C(C)C)[C@H]2CC[C@H](C)CC2)cc1O [Example 417, N-[(1S)-2-[4-(3,5-dimethyl-1H-pyrazol-4-yl)-3-hydroxy-anilino]-1-(trans-4-methylcyclohexyl)-2-oxo-ethyl]-2-isopropyl-pyrazole-3-carboxamide]"
26,< 100,"CCc1n[nH]c(CC)c1-c1ccc(NC(=O)[C@@H](NC(=O)c2ccnn2C(C)C)C(C2CC2)C2CC2)cc1O [Example 418, N-[(1S)-1-(dicyclopropylmethyl)-2-[4-(3,5-diethyl-1H-pyrazol-4-yl)-3-hydroxy-anilino]-2-oxo-ethyl]-2-isopropyl-pyrazole-3-carboxamide]"
27,100 to 1000,"Cn1cncc1-c1ccc(NC(=O)[C@@H](NC(=O)c2ccnn2C)C2CCCCC2)cc1O [Example 419, N-[(1S)-1-Cyclohexyl-2-[3-hydroxy-4-(3-methylimidazol-4-yl)anilino]-2-oxo-ethyl]-2-methyl-pyrazole-3-carboxamide]"
28,100 to 1000,"Cn1cncc1-c1ccc(NC(=O)[C@@H](NC(=O)c2ccnn2C)C(c2ccccc2)c2ccccc2)cc1O [Example 420, N-[(1S)-1-benzhydryl-2-[3-hydroxy-4-(3-methylimidazol-4-yl)anilino]-2-oxo-ethyl]-2-methyl-pyrazole-3-carboxamide]"
